Measurements published in a melting point compilation (Tetko et al.).

| SMILES | melting point |
| --- | --- |
| O=S(=O)(Cl)Cc1cc(Cl)ccc1F | 45 to 47 °C |
| O=C(CC1SC(N2CCCCC2)=NC1=O)Nc1cccc(C(=O)O)c1 (configuration not stated) | 188 to 190 °C |
| CC(C)(C)C1CCN(S(=O)(=O)Cl)CC1 | 69 to 71 °C |
| Cc1ccc(-c2nn(Cc3ccccc3)cc2C=O)cc1C | 79 to 81 °C |
| Oc1ccc(-c2nnco2)cc1 | 210 to 212 °C |
| O=C(O)CNC(=O)C1CCOCC1 | 166 to 168 °C |
| O=C(O)CCCN1C(=S)CSC1=S | 122 to 124 °C |
| NC(=O)c1ccc(S(=O)(=O)Cl)cc1 | 188 to 190 °C |
| Cc1nc2ccccc2n1C(C(=O)O)C(C)C (configuration not stated) | 119 to 121 °C |
| O=C(O)c1cc(S(=O)(=O)Cl)c(Br)o1 | 139 to 141 °C |
| Cn1ncc2c(=O)[nH]c(NN)nc21 | 285 to 287 °C |
| Cc1[nH]c2ccccc2c1CC#N | 79 to 81 °C |
| CC(C)(C)c1nn(Cc2ccccc2)cc1C=O | 64 to 66 °C |
| CCOC(=O)C(O)c1ncc(Cl)n1C (configuration not stated) | 85 to 87 °C |
| CN1CCN(S(=O)(=O)c2ccc(Cl)nc2)CC1 | 129 to 131 °C |
| O=C1COc2cc(S(=O)(=O)Cl)c(Br)cc2N1 | 223 to 225 °C |
| COc1cc(N)c(O)cc1[N+](=O)[O-] | 149 to 151 °C |
| CC(=O)c1ccc(-n2ccnc2C)cc1 | 132 to 134 °C |
| O=S(=O)(c1cccc(CCl)c1)N1CCOCC1 | 92 to 94 °C |
| O=C(O)Cn1c(SC(F)F)nc2ccccc21 | 188 to 203 °C |
| Cn1cc(S(N)(=O)=O)cc1C(=O)O | 202 to 204 °C |
| CC(C)(C)n1cc(C(=O)O)c(-c2ccc(F)cc2F)n1 | 145 to 147 °C |
| O=Cc1cccc(OC(C(=O)O)c2ccccc2)c1 (configuration not stated) | 98 to 100 °C |
| Cc1cc(C)c(N)c(Cl)n1 | 56 to 58 °C |

| SMILES | melting point |
| --- | --- |
| O=Cc1c[nH]nc1-c1ccc2c(c1)OCCO2 | 210 to 212 °C |
| N#CCOc1ccc(/C=C/C(=O)O)cc1 | 214 to 216 °C |
| O=C(c1cccc(F)c1)c1cccc(Br)c1 | 65 to 67 °C |
| O=C(O)CCc1nncn1-c1ccccc1 | 202 to 204 °C |
| CCc1ccc(/C=C/c2cc(C(=O)O)c3cc(Br)ccc3n2)cc1 | 286 to 288 °C |
| COc1ccc(Cc2nnn[nH]2)cc1F | 191 to 193 °C |
| Cc1cc(C)c(-c2cc(N)[nH]n2)cc1C | 145 to 147 °C |
| O=C(O)Cc1cc(Cl)c2c(c1)OCCO2 | 176 to 178 °C |
| Cc1nn(-c2ccc(C(F)(F)F)cn2)c(C)c1CC(=O)O | 142 to 144 °C |
| N#CC(C(=O)N1CCCCC1)c1ccc(C(F)(F)F)cn1 (configuration not stated) | 137 to 139 °C |
| Nc1cc(Cl)c(OC(F)F)c(Cl)c1 | 82 to 84 °C |
| CCS(=O)(=O)c1ccc(NC(=O)CCl)c(O)c1 | 207 to 209 °C |
| O=S(=O)(c1c[nH]c2ncccc12)N1CCNCC1 | 207 to 209 °C |
| NC(CSCc1cccc2ccccc12)C(=O)O (configuration not stated) | 199 to 201 °C |
| CC(C)NC(=O)c1ccc(Cl)c(N)c1 | 131 to 133 °C |
| O=C(O)CCSCC(=O)Nc1ccc(Br)cc1 | 148 to 150 °C |
| CCN(CC)S(=O)(=O)c1ccc(Cl)c(S(=O)(=O)Cl)c1 | 99 to 101 °C |
| CS(=O)(=O)c1ccc(N)c(Br)c1 | 207 to 209 °C |
| O=C1C=CC=NC1=C(O)Nc1ccncc1 | 164 to 166 °C |
| COC(=O)c1ccc(OCC2CO2)cc1 (configuration not stated) | 59 to 61 °C |
| CC(C)C(Br)C(=O)Nc1ccc2c(c1)CCC2 (configuration not stated) | 124 to 126 °C |
| CC1CCC(NS(=O)(=O)c2ccc(Cl)c([N+](=O)[O-])c2)CC1 (configuration not stated) | 101 to 103 °C |
| O=C1Nc2cc(Br)ccc2C1=O | 259 to 261 °C |
| O=C(O)COc1ccccc1OCc1ccc(F)cc1 | 108 to 110 °C |

| SMILES | melting point |
| --- | --- |
| CC(C)OCc1c(C(=O)O)oc2ccccc12 | 131 to 133 °C |
| Cc1ccc(-c2nc(C)c(C(C)N)s2)cc1 (configuration not stated) | 57 to 59 °C |
| NC1CCN(c2ccccc2)C1=O (configuration not stated) | 66 to 68 °C |
| Cc1cc(Cl)c(Cl)cc1[N+](=O)[O-] | 57 to 59 °C |
| O=C(O)Cc1cc(Cl)ccc1Br | 101 to 103 °C |
| N#CCN1CCC(O)CC1 | 76 to 78 °C |
| CCc1nc(C)ncc1C(=O)O | 158 to 160 °C |
| CC(C)(C)n1ccnc1SCC(=O)O | 174 to 176 °C |
| O=C(O)c1coc(Br)c1 | 133 to 135 °C |
| O=[N+]([O-])c1cccc(OCC2CO2)c1 (configuration not stated) | 63 to 65 °C |
| O=c1[nH]c(CCl)nc2sccc12 | 209 to 211 °C |
| Cc1cc(-n2nc(C)cc2N)nc(C)n1 | 104 to 106 °C |
| O=C(O)c1ccc(-c2nc3ccccc3s2)o1 | 180 to 188 °C |
| CC1(C)CCc2c(sc(N)c2C(N)=O)C1 | 144 to 146 °C |
| CCc1ccc(N(C(C)=O)c2nc(CCl)cs2)cc1 | 195 to 197 °C |
| Cc1cc(C=O)c(C)n1-c1ccc(Cl)cc1 | 123 to 125 °C |
| Nc1cncc(Br)c1Cl | 96 to 98 °C |
| CCOc1ccc(C(C)=O)cc1[N+](=O)[O-] | 54 to 56 °C |
| Cc1oc(C(=O)O)cc1COc1ccccc1 | 139 to 141 °C |
| OC1CC(c2ccc(Br)cc2)C1 (configuration not stated) | 59 to 61 °C |
| Fc1cccc(NC2CCOCC2)c1 | 70 to 72 °C |
| NNC(=O)c1cc(Br)ccc1O | 222 to 224 °C |
| FC(F)(F)Cn1c(-c2ccccc2)cnc1S | 179 to 181 °C |
| Nc1ccccc1C(=O)NCCCN1CCOCC1 | 194 to 198 °C |

| SMILES | melting point |
| --- | --- |
| Cn1ncc(-c2nc(C3CC3)no2)c1N | 159 to 161 °C |
| O=[N+]([O-])c1cncc(Br)c1 | 99 to 101 °C |
| O=C(Cc1ccc(O)cc1)NC1CCNCC1 | 211 to 213 °C |
| COc1ccc(N(C)S(=O)(=O)c2cccc(C(=O)O)c2)cc1 | 172 to 174 °C |
| Cc1ccc2oc(=O)[nH]c2c1 | 130 to 132 °C |
| COc1ccc(NC(C)=O)cc1N | 106 to 108 °C |
| O=C(O)C1CCCCN1S(=O)(=O)c1ccc(Br)s1 (configuration not stated) | 125 to 127 °C |
| O=C(O)c1ccccc1OCc1cccs1 | 87 to 89 °C |
| Cc1nc(N)cc(C2CC2)n1 | 159 to 161 °C |
| COc1ccc(C)cc1-n1ccc(C(=O)O)n1 | 158 to 160 °C |
| CS(=O)(=O)c1ccc(C#N)cc1N | 150 to 152 °C |
| O=S1(=O)Cc2ccccc2N1 | 123 to 125 °C |
| Cc1nc(N)nc2c1CCCC2 | 181 to 185 °C |
| O=C1c2ccccc2C(=O)N1Cc1ccnc2ccnn12 | 274 to 276 °C |
| ON=C1CCN(Cc2ccccn2)CC1 | 61 to 63 °C |
| Sc1nnc(CN2CCCC2)n1-c1ccc(Cl)cc1 | 260 to 262 °C |
| CC(C)C(C(=O)O)N1CCCS1(=O)=O (configuration not stated) | 97 to 99 °C |
| Cc1[nH]c2ccc(F)cc2c1CC(=O)O | 180 to 182 °C |
| O=Cc1ccc(Br)nc1 | 104 to 110 °C |
| Cn1cc([N+](=O)[O-])cc1C(=O)O | 199 to 201 °C |
| CCn1c(CCC(=O)O)nc2cc(S(N)(=O)=O)ccc21 | 263 to 265 °C |
| COc1ccc(S(=O)(=O)Cl)cc1NC(C)=O | 145 to 147 °C |
| Nc1ncnc(Cl)c1C=O | 159 to 161 °C |
| ClCc1cc(Cl)cc2c1OCC2 | 46 to 48 °C |

| SMILES | melting point |
| --- | --- |
| Cc1ccc(/C=C/S(=O)(=O)Cl)cc1 | 111 to 113 °C |
| COc1ccc(CCC(=O)CC#N)cc1 | 58 to 60 °C |
| Nc1ccc2nc(NC(=O)CN3CCOCC3)sc2c1 | 228 to 230 °C |
| O=C(O)c1sccc1S(=O)(=O)Nc1ccc(F)cc1 | 180 to 182 °C |
| Nc1ccccc1Oc1ncc(Cl)cc1Cl | 104 to 106 °C |
| Cc1ccc(C#N)cc1S(=O)(=O)Cl | 82 to 84 °C |
| Cc1ccccc1-n1c(S)nc2scc(-c3ccccc3)c2c1=O | 157 to 159 °C |
| O=C(O)c1cccnc1Oc1ccc(Br)cc1 | 177 to 179 °C |
| Cc1cnc2c(c1)NCCO2 | 109 to 111 °C |
| Nc1ccc(Cl)c(C(=O)NC2CC2)c1 | 126 to 128 °C |
| CN(CC(=O)O)C1CC1 | 101 to 103 °C |
| Cc1nc2ccc(C#N)cc2s1 | 129 to 131 °C |
| Cn1c(=O)n(CCC(=O)O)c2ccccc21 | 226 to 228 °C |
| NS(=O)(=O)c1ccc2c(c1)C(=O)C(=O)N2 | 258 to 260 °C |
| Cc1ccc(S(=O)(=O)Nc2ccccc2C(=O)O)cc1 | 231 to 233 °C |
| O=C(O)Cc1ccc(S(=O)(=O)Cl)cc1 | 131 to 133 °C |
| CCOc1cccnc1C(=O)O | 130 to 132 °C |
| [N-]=[N+]=NCCN1C(=O)C(=O)c2ccccc21 | 71 to 73 °C |
| COc1ccc2c(c1)c(C(=O)O)c(C)n2C1CCCCC1 | 137 to 139 °C |
| CC(Cl)c1nnc(-c2ccc(Cl)cc2Cl)o1 (configuration not stated) | 55 to 57 °C |
| O=C(O)c1ccc2nnc(C3CC3)n2c1 | 290 to 292 °C |
| NCCCNC(=O)c1cccc(Br)c1 | 52 to 54 °C |
| C=CCn1c(=O)c2ccccc2n2c(S)nnc12 | 177 to 179 °C |
| CS(=O)(=O)OCCn1cc(C#N)cn1 | 64 to 66 °C |

| SMILES | melting point |
| --- | --- |
| O=C(O)CCc1nnc(-c2ccccc2)o1 | 144 to 146 °C |
| Nc1cccc(CS(=O)(=O)c2ccc(F)cc2F)c1 | 97 to 99 °C |
| O=C1CCCN1c1ccc(Cl)c([N+](=O)[O-])c1 | 137 to 139 °C |
| Nc1cc(Cl)c(N)cc1Cl | 164 to 166 °C |
| Cn1cnc(-c2ccccc2)c1N | 159 to 161 °C |
| Nn1c(S)nnc1C1CCOC1 (configuration not stated) | 116 to 118 °C |
| CC(C)C(NC(=O)CCc1ccccc1)C(=O)O (configuration not stated) | 147 to 149 °C |
| O=C(O)c1cccc(-c2nnco2)c1 | 239 to 241 °C |
| COc1nc2cc(N)ccc2o1 | 123 to 125 °C |
| O=C(CO)NCc1ccccc1 | 101 to 103 °C |
| Cc1c(C(=O)O)oc2ccc(Cl)cc12 | 255 to 257 °C |
| CS(=O)(=O)Cc1ccc(Cl)c(N)c1 | 137 to 139 °C |
| CCOC(=O)CNc1ccccc1-c1ccccc1 | 53 to 55 °C |
| Cc1ncc(CN2CCNCC2)s1 | 79 to 81 °C |
| O=C(O)c1sccc1S(=O)(=O)N1CCCCC1 | 111 to 113 °C |
| CCc1cccc2c(C3CCNCC3)c[nH]c12 | 183 to 185 °C |
| CC(C)CC1NC(=O)NC1=O (configuration not stated) | 215 to 217 °C |
| O=C(C(=O)c1ccc(Cl)cc1)c1ccc(Cl)cc1 | 198 to 200 °C |
| COc1ccc(-c2ccc(C=O)o2)c([N+](=O)[O-])c1 | 107 to 109 °C |
| Cc1ccc(-n2nc(C)c(C(=O)O)n2)c(C)c1 | 178 to 180 °C |
| OCc1cc(Br)cc(CO)c1O | 164 to 166 °C |
| O=C(O)CCCn1ccccc1=O | 121 to 123 °C |
